What was measured:
[1] = tested on: PC3 cells stably transfected with GFP-LC3; set-up: method as in PMID 20811583; settings: cited from earlier work
PC3-AZD20 cells = assay: MTT cell viability in Src inhibitor resistant cells; type: cell-based, human; settings: 72 h
Method: PC3 and PC3-AZD20 (PC3 cell resistant to 20 μM AZD0530, which is from AstraZeneca through MTA with Dr. Chris Evans) cells were seeded at 2000 cells/well in 96 well plates overnight. The cells were treated with AZD0530 or CTA095 at the indicated concentrations. Cell viability was measured using an MTT assay after 72 h.
Figure 11 CTA095 overcomes Src inhibitor resistance in prostate cancer cells. PC3 and PC3-AZD20 (PC3 cell resistant to 20 μM AZD0530) cells were seeded at 2000 cells/well in 96 well plates overnight. The cells were treated with AZD0530 or CTA095 at the indicated concentrations. Cell viability was measured using MTT assay after 72 h. Symbols, mean; bars, standard deviation, n = 3.

[2] = tested on: pEtk, pSrc, pSTAT3, Myc and BCL2 in PC3-AZD20 cells; assay: Western blot of pEtk, pSrc, pStat3, Myc and BCL2; type: cell-based, human; settings: PC3-AZD20, 10 μM
Method: PC3-AZD20 cells were seeded at 10^6 cells/well in 6 well plates overnight. The cells were treated with AZD0530 or CTA095 at 10 μM. Apoptosis was analyzed using Annexin-V FITC apoptosis detection kit. The mRNA levels of Myc and BCL2 were measured using real-time PCR. pEtk, Etk, pSrc, Src, pStat3, Stat3, Myc and BCL2 levels were measured using the corresponding antibodies through a Western blot.
Figure 12 CTA095 induces apoptosis in Src inhibitor resistant prostate cancer cells through Myc and BCL2 inhibition. PC3-AZD20 (PC3 cell resistant to 20 μM AZD0530) cells were seeded at 10^6 cells/well in 6 well plates overnight. The cells were treated with AZD0530 or CTA095 at 10 μM. Apoptosis was analyzed using Annexin-V FITC apoptosis detection kit (A). The mRNA levels of Myc and BCL2 were measured using real-time PCR (B). pEtk, Etk, pSrc, Src, pStat3, Stat3, Myc and BCL2 levels were measured using the corresponding antibodies through Western blot (C). Columns, mean; bars, standard deviation, n = 3.

For `CN1CCN(CCOc2cc(OC3CCOCC3)c3c(Nc4c(Cl)ccc5c4OCO5)ncnc3c2)CC1` [AZD0530, reference compound], the “autophagy in prostate cancer cells” value [1] is given as “induces autophagy”, the “cell viability / sensitivity of PC3-AZD20 cells” value (PC3-AZD20 cells) is given as “resistant” and the “pEtk, pSrc, pSTAT3, Myc and BCL2 protein levels” value [2] is given as “pSrc and pSTAT3, but not c-myc and Bcl-2 were decreased”.

Reference: publication PMC3744530, “CTA095, a Novel Etk and Src Dual Inhibitor, Induces Apoptosis in Prostate Cancer Cells and Overcomes Resistance to Src Inhibitors” (PLoS ONE, 2013)
